From patent publication US5306713A, “Highly active antioxidant of tocopheryl ascorbyl phosphate” (Shiseido Company Ltd., priority 1991, dated 1994)
Where a name gives a salt, the structure may show the parent alone.

Experiments:
[1] = anti-oxidizing effect against oxidation of phospholipid/ethanol mixed micell by Fe^2+.ascorbic acid (Experimental Example 3); type: biochemical; conditions: 4.0 × 10^-5 M
Procedure: The anti-oxidizing effect of the sodium salt of phosphoric acid diester prepared in Preparation Example 2 against the oxidation of a phospholipid (egg lecitin)/ethanol mixed micell by Fe^2+.ascorbic acid was examined.
About 78 mg of egg lecitin was dissolved in 2 ml of ethanol, and 5 mM HEPES buffer solution (pH 7.2) was gradually added to the solution with ice cooling under the application of an ultrasonic wave (50 W) to form a suspension, until the total amount was 100 ml. Then, 200 μl of a 2.6×10^-4 M aqueous solution of the sodium salt of phosphoric acid diester was added to 1000 μl of the so-formed liquid. Then 50 μl of a 5.0×10^-5 M aqueous solution of sodium ascorbate and 50 μl of a 2.5×10^-6 M aqueous solution of ferrous sulfate were added to the mixture, and oxidation was carried out for 15 minutes in a water bath at 25° C. After the reaction, 50 μl of a 0.1% solution of hydroquinone in ethanol was immediately added to stop the reaction. […] After cooling, the absorbance at 450 to 600 nm was measured by a spectrophotometer. The increase of the absorption in the vicinity of about 530 to about 540 nm in the obtained curve was measured. The inhibition ratio was determined by comparing the obtained result with the result obtained at the blank test not using the test liquid.

[2] = amount of formalin in triethylene glycol stored at 50° C., by colorimetry (Experimental Example 1); conditions: 50% aqueous triethylene glycol; for amount of formalin, After 3 Days / amount of formalin, After 6 Days / amount of formalin, Just After Preparation: 2 mg antioxidant in 10 g
Procedure: As the example of the present invention, 2 mg of the sodium salt of phosphoric acid diester obtained in Preparation Example 2 was dissolved in 10 g of a 50% aqueous solution of triethylene glycol (supplied by Nakarai Chemicals Co., Ltd.), the solution was stored in a thermostat tank maintained at 50° C. for 3 or 6 days, and the amount of formalin was measured by colorimetry.
Triethylene glycol free of any antioxidant as Comparison Example 1, triethylene glycol in which ascorbic acid was added in the same amount as in the Example of the present invention, as Comparison Example 2, and triethylene glycol in which mixed tocopherol was incorporated in the same amount as in the example of the present invention, as Comparison Example 3, were tested in the same manner as described above.

solubility in water = type: physicochemical
[3] = smell evaluation of stored triethylene glycol samples by three experts (Experimental Example 2); parameters: key: +: no smell of rancidity; -: strong smell of rancidity; conditions: samples of Experimental Example 1 after 6 days storage
Procedure: The sample of the Example of the present invention and Comparison Examples 1, 2, and 3 in Experimental Example 1, obtained after 6 days storage, were evaluated with respect to the smell thereof.
The evaluation was made by three experts.

[4] = cited from earlier work

Row | Compound | amount of formalin, After 3 Days ([2]; 50° C.) | amount of formalin, After 6 Days ([2]; 50° C.) | amount of formalin, Just After Preparation [2] | solubility in water (in words) (solubility in water) | Judgement of Smell [3] | also measured
1 | Cc1c(C)c2c(c(C)c1OP(=O)(O)OC1=C(O)[C@@H]([C@@H](O)CO)OC1=O)CCC(C)(CCCC(C)CCCC(C)CCCC(C)C)O2 (mixture of isomers) [sodium salt of phosphoric acid diester, sodium L-ascorbic DL-α-tocopherol phoschate] | 1.7 | 15.5 | 0.1 | soluble in water | + | inhibition of the oxidation (in words) [1]: substantially completely inhibited the oxidation; Inhibition Ratio ([1]; oxidation 15 minutes at 25° C., pH 7.2 HEPES, TBA absorbance about 530 to about 540 nm, 40 µM): 99.1%; anti-oxidizing effect compared with ascorbic acid or tocopherol alone (in words) ([2]; 50° C., 3 or 6 days): much higher anti-oxidizing effect
2 | tocopherol |  |  |  |  |  | solubility of tocopherol in water (in words) [4]: not soluble in water
3 | Cc1c(C)c2c(c(C)c1OP(=O)(O)OC1=C(O)[C@@H]([C@@H](O)CO)OC1=O)CCC(C)(CCCC(C)CCCC(C)CCCC(C)C)O2 (mixture of isomers) [phosphoric acid diester, L-ascorbic DL-α-tocopherol phosphate] |  |  |  | freely dissolved in water |  | 
4 | Cc1c(C)c2c(c(C)c1OP(=O)(O)OC1=C(O)[C@@H]([C@@H](O)CO)OC1=O)CCC(C)(CCCC(C)CCCC(C)CCCC(C)C)O2 (mixture of isomers) [potassium salt, potassium L-ascorbic DL-α-tocopherol phosphate] |  |  |  | soluble in water |  | 
5 | O=C1O[C@H]([C@@H](O)CO)C(O)=C1O [ascorbic acid, reference compound] | 39.6 | 111.7 | 0.1 |  | - | 
6 | Cc1c(C)c2c(c(C)c1OP(=O)(O)OC1=C(O)[C@@H]([C@@H](O)CO)OC1=O)CCC(C)(CCCC(C)CCCC(C)CCCC(C)C)O2 (stereo partly shown) [calcium salt] |  |  |  | insoluble in water |  | 
